The experiment has as its target T1, purified human HDAC6 (Homo sapiens, UniProt Q9UBN7).
T1 construct: purchased BPS Bioscience 5006
T1 sequence (Q9UBN7 1-1215): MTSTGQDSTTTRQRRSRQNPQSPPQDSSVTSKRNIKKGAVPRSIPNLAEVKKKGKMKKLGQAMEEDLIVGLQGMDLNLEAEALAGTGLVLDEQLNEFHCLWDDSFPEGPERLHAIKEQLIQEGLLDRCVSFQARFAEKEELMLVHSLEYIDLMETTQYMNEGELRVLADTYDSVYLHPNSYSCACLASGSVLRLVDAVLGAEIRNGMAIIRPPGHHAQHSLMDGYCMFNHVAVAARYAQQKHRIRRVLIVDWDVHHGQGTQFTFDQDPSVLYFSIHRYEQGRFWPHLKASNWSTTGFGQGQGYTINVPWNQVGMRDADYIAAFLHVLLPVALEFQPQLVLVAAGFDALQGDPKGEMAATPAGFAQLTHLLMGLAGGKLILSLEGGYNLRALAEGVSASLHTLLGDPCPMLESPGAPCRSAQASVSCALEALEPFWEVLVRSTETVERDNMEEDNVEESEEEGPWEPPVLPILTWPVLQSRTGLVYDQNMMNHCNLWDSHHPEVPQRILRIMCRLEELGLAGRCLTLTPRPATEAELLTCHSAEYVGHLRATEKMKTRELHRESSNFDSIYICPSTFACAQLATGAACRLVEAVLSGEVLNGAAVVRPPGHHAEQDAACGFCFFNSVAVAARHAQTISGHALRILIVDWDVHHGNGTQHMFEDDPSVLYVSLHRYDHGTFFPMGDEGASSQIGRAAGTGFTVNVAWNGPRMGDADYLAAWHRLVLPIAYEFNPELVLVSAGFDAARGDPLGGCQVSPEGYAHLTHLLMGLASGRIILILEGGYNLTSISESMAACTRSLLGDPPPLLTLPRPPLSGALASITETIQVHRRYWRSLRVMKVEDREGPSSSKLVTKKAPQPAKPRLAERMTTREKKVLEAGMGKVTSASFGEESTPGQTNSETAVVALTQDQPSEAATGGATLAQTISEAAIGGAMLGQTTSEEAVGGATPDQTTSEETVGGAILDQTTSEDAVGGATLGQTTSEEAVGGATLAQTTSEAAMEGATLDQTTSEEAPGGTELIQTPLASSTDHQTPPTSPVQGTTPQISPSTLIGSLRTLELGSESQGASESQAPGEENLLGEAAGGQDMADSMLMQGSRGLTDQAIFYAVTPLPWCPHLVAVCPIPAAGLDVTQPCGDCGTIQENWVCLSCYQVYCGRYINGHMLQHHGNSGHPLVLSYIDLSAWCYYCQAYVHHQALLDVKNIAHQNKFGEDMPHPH
Description: HDAC6 enzyme assay. The class given is biochemical. How it is done: To measure the inhibition of HDAC6 activity, purified human HDAC6 (BPS Bioscience; Cat. No. 5006) is incubated with substrate Ac-Arg-Gly-Lys(Ac)-AMC peptide (Bachem Biosciences; Cat. No. I-1925) for 1 hour at 30° C. in the presence of test compounds or vehicle DMSO control. The reaction is stopped with the HDAC inhibitor trichostatin A (Sigma; Cat. No. T8552) and the amount of Arg-Gly-Lys-AMC generated is quantitated by digestion with trypsin (Sigma; Cat. No. T1426) and subsequent measurement of the amount of AMC released using a fluorescent plate reader (Pherastar; BMG Technologies) set at Ex 340 nm and Em 460 nm. Concentration response curves are generated by calculating the fluorescence increase in test compound-treated samples relative to DMSO-treated controls, and enzyme inhibition (IC50) values are determined from those curves.

Setting [1] is: bins: greater than 1 μM and less than 10 μM, greater than 10 μM.

Broadly, the IC50 is the concentration that inhibits the measured activity by half. A high value points to lower potency. `Cc1ccc(C(=O)N2CCCn3cc(C(=O)NO)cc3C2)s1` [Compound I-69, N-hydroxy-2-[(5-methyl-2-thienyl)carbonyl]-2,3,4,5-tetrahydro-1H-pyrrolo [1,2-a][1,4]diazepine-8-carboxamide] gave an IC50 under setting [1] of more than 10000 nM.
With `O=C(NO)c1cc2n(c1)CCN(C(=O)c1cnn(-c3ccccc3)c1C(F)(F)F)C2` [Compound I-64, N-hydroxy-2-{[1-phenyl-5-(trifluoromethyl)-1H-pyrazol-4-yl]carbonyl}-1,2,3,4-tetrahydropyrrolo[1,2-a]pyrazine-7-carboxamide], under setting [1], the IC50 was 1000 to 10000 nM.
Under setting [1], `O=C(NO)c1cc2n(n1)CCN(C(=O)C1(C(F)(F)F)CC1)C2` [Compound I-8, N-hydroxy-5-{[1-(trifluoromethyl)cyclopropyl]carbonyl}-4,5,6,7-tetrahydropyrazolo[1,5-a]pyrazine-2-carboxamide] yielded a 50% inhibitory concentration (IC50) of 1000 to 10000 nM.
Compound `CC1(C(=O)N2CCCn3cc(C(=O)NO)cc3C2)CCCCC1` [Compound I-74, N-hydroxy-2-[(1-methylcyclohexyl)carbonyl]-2,3,4,5-tetrahydro-1H-pyrrolo[1,2-a][1,4]diazepine-8-carboxamide] gave an IC50 under setting [1] of 1000 to 10000 nM.
The compound `Cc1ccc2[nH]c(C(=O)N3CCn4cc(C(=O)NO)cc4C3)cc2c1` [Compound I-22, N-hydroxy-2-[(5-methyl-1H-indol-2-yl)carbonyl]-1,2,3,4-tetrahydropyrrolo[1,2-a]pyrazine-7-carboxamide] showed an IC50 (bin: less than 100 nM) of less than 100 nM.
In turn, `Cc1cc(C(=O)N2CCn3cc(C(=O)NO)cc3C2)c(C)o1` [Compound I-85, 2-(2,5-dimethyl-3-furoyl)-N-hydroxy-1,2,3,4-tetrahydropyrrolo[1,2-a]pyrazine-7-carboxamide] yielded a half-maximal inhibitory concentration (IC50) (bin: less than 100 nM) of less than 100 nM.
Still for that read-out and setting: then `Cn1c(C(=O)N2CCn3cc(C(=O)NO)cc3C2)ccc1S(N)(=O)=O` [Compound I-47, 2-{[5-(aminosulfonyl)-1-methyl-1H-pyrrol-2-yl]carbonyl}-N-hydroxy-1,2,3,4-tetrahydropyrrolo[1,2-a]pyrazine-7-carboxamide], with less than 100 nM.
The same measure, in the same setting: then `COc1ccc(C(=O)N2CCn3cc(C(=O)NO)cc3C2)cc1` [Compound I-68, N-hydroxy-2-(4-methoxybenzoyl)-1,2,3,4-tetrahydropyrrolo[1,2-a]pyrazine-7-carboxamide], with less than 100 nM.
The same measure, in the same setting: next, `Cc1c(C(=O)N2CCn3cc(C(=O)NO)cc3C2)cnn1-c1ccccc1` [Compound I-99, N-hydroxy-2-[(5-methyl-1-phenyl-1H-pyrazol-4-yl)carbonyl]-1,2,3,4-tetrahydropyrrolo[1,2-a]pyrazine-7-carboxamide]: less than 100 nM.
`O=C(NO)c1cc2n(c1)CCN(C(=O)c1cnn3cccnc13)C2` [Compound I-84, N-hydroxy-2-(pyrazolo[1,5-a]pyrimidin-3-ylcarbonyl)-1,2,3,4-tetrahydropyrrolo[1,2-a]pyrazine-7-carboxamide]: under setting [1], the IC50 is more than 10000 nM.
Same read-out and setting: next, `Cc1onc(-c2ccccc2)c1NC(=O)N1CCn2cc(C(=O)NO)nc2C1` [Compound I-122, N2-hydroxy-N7-(5-methyl-3-phenylisoxazol-4-yl)-5,6-dihydroimidazo[1,2-a]pyrazine-2,7(8H)-dicarboxamide]: 1000 to 10000 nM.
`O=C(NO)c1cc2n(c1)CCCN(C(=O)c1ccc(Cl)cc1)C2` [Compound I-56, 2-(4-chlorobenzoyl)-N-hydroxy-2,3,4,5-tetrahydro-1H-pyrrolo[1,2-a][1,4]diazepine-8-carboxamide] displayed a half-maximal inhibitory concentration (IC50) under setting [1] of 1000 to 10000 nM.
Same read-out and setting: then `CCc1cc(C(=O)N2CCCn3cc(C(=O)NO)cc3C2)n(C)n1` [Compound I-95, 2-[(3-ethyl-1-methyl-1H-pyrazol-5-yl)carbonyl]-N-hydroxy-2,3,4,5-tetrahydro-1H-pyrrolo[1,2-a][1,4]diazepine-8-carboxamide], with 1000 to 10000 nM.
The compound `O=C(NO)c1cc2n(c1)CCN(C(=O)c1cn3ccccc3n1)C2` [Compound I-3, N-hydroxy-2-(imidazo[1,2-a]pyridin-2-ylcarbonyl)-1,2,3,4-tetrahydropyrrolo[1,2-a]pyrazine-7-carboxamide] came in with an IC50 under setting [1] of 1000 to 10000 nM.
`O=C(NO)c1cn2c(n1)CN(C(=O)Nc1ccccc1)CC2` [Compound I-116, N2-hydroxy-N7-phenyl-5,6-dihydroimidazo[1,2-a]pyrazine-2,7(8H)-dicarboxamide] registered a half-maximal inhibitory concentration (IC50) (bin: less than 100 nM) of less than 100 nM.
The same measure, in the same setting: then `O=C(NO)c1cc2n(n1)CCN(C(=O)c1ccc(OCc3ccccc3)cc1)C2` [Compound I-17, 5-[4-(benzyloxy)benzoyl]-N-hydroxy-4,5,6,7-tetrahydropyrazolo[1,5-a]pyrazine-2-carboxamide], with less than 100 nM.
The compound `O=C(NO)c1cn2c(n1)CN(C(=O)C13CC4CC(CC(C4)C1)C3)CC2` [Compound I-27, 7-[1-adamantylcarbonyl]-N-hydroxy-5,6,7,8-tetrahydroimidazo[1,2-a]pyrazine-2-carboxamide] gave a concentration for half-maximal inhibition (IC50) under setting [1] of 1000 to 10000 nM.
As to `CC(C)N1CCn2nc(C(=O)NO)cc2C1=O` [Compound I-46, N-hydroxy-5-isopropyl-4-oxo-4,5,6,7-tetrahydropyrazolo[1,5-a]pyrazine-2-carboxamide], the IC50 under setting [1] lay in the range of 1000 to 10000 nM.
`CCCCN1CCn2cc(C(=O)NO)cc2C1` [Compound I-86, 2-butyl-N-hydroxy-1,2,3,4-tetrahydropyrrolo[1,2-a]pyrazine-7-carboxamide] had an IC50 under setting [1] of more than 10000 nM.
In turn, `Cn1c(C(=O)N2CCn3cc(C(=O)NO)cc3C2)cc2ccccc21` [Compound I-20, N-hydroxy-2-[(1-methyl-1H-indol-2-yl)carbonyl]-1,2,3,4-tetrahydropyrrolo[1,2-a]pyrazine-7-carboxamide] registered an IC50 (bin: less than 100 nM) of less than 100 nM.
Turning to `Cn1cccc1C(=O)N1CCCn2nc(C(=O)NO)cc2C1` [Compound I-71, N-hydroxy-5-[(1-methyl-1H-pyrrol-2-yl)carbonyl]-5,6,7,8-tetrahydro-4H-pyrazolo[1,5-a][1,4]diazepine-2-carboxamide], the half-inhibitory concentration (IC50) under setting [1] was more than 10000 nM.
Same read-out and setting: then `Cn1nc(C(C)(C)C)cc1C(=O)N1CCCn2cc(C(=O)NO)cc2C1` [Compound I-63, 2-[(3-tert-butyl-1-methyl-1H-pyrazol-5-yl)carbonyl]-N-hydroxy-2,3,4,5-tetrahydro-1H-pyrrolo[1,2-a][1,4]diazepine-8-carboxamide], with 1000 to 10000 nM; and `O=C(NO)c1cc2n(c1)CCCN(C(=O)C1(c3ccc(Cl)cc3)CC1)C2` [Compound I-34, 2-{[1-(4-chlorophenyl)cyclopropyl]carbonyl}-N-hydroxy-2,3,4,5-tetrahydro-1H-pyrrolo[1,2-a][1,4]diazepine-8-carboxamide], with 1000 to 10000 nM.
On to `Cc1cc(C(=O)N2CCCn3cc(C(=O)NO)cc3C2)c(C)o1` [Compound I-4, 2-(2,5-dimethyl-3-furoyl)-N-hydroxy-2,3,4,5-tetrahydro-1H-pyrrolo[1,2-a][1,4]diazepine-8-carboxamide], for which the half-maximal inhibitory concentration (IC50) under setting [1] was more than 10000 nM.
Same read-out and setting: then `Cc1c(C(=O)N2CCCn3cc(C(=O)NO)cc3C2)cnn1-c1ccccc1` [Compound I-7, N-hydroxy-2-[(5-methyl-1-phenyl-1H-pyrazol-4-yl)carbonyl]-2,3,4,5-tetrahydro-1H-pyrrolo[1,2-a][1,4]diazepine-8-carboxamide], with 1000 to 10000 nM; and `O=C(NO)c1cc2n(n1)CCN(C(=O)C13CC4CC(CC(C4)C1)C3)C2` [Compound I-16, 5-(1-adamantylcarbonyl)-N-hydroxy-4,5,6,7-tetrahydropyrazolo[1,5-a]pyrazine-2-carboxamide], with 1000 to 10000 nM.

(Values after patent US8946223B2, “Substituted hydroxamic acids and uses thereof” (Millennium Pharmaceuticals, Inc., priority 2010, dated 2015).)
